Measured values published in ChEMBL document CHEMBL3885861, “Open TG-GATES”.

Organism: Rattus norvegicus
Assay: Open TG-GATES - Regimen: Single
Assay type: toxicity, organism-based, Sprague-Dawley
Set-up: regimen Single, gender Male, age 6 weeks
Conditions: in vivo, po, 300 mg/kg, route gavage, dose level High; for APTT / Bas / Eos / Fbg / Hb / Ht / Lym / MCH / MCHC / MCV / Mono / Neu / PT / Plat / RBC / Ret / WBC: tissue Blood; for KIDNEY_L / KIDNEY_R / KIDNEY_TOTAL: tissue Kidney; for LIVER: tissue Liver; for A/G / ALP / ALT / AST / BUN / CRE / Ca / Cl / DBIL / GLC / IP / K / LDH / Na / PL / RALB / TBIL / TC / TG / TP / gamma-GTP: tissue Plasma

Cc1cccc(Nc2ccccc2C(=O)O)c1C [MEFENAMIC ACID]
TERMINAL_BW (3 h): 215.2 g
APTT (3 h): 18.8 s
Bas (3 h): 0%
Eos (3 h): 1.2%
Fbg (3 h): 229.4 mg/dL
Hb (3 h): 12.9 g/dL
Ht (3 h): 36.2%
Lym (3 h): 73.6%
MCH (3 h): 21.8 pg
MCHC (3 h): 35.6%
MCV (3 h): 61.3 fL
Mono (3 h): 2.8%
Neu (3 h): 20.2%
PT (3 h): 12.4 s
Plat (3 h): 115.5 x10_4/uL
RBC (3 h): 591.2 x10_4/ul
Ret (3 h): 7.5%
WBC (3 h): 95.9 x10_2/uL
KIDNEY_L (3 h): 1 g
KIDNEY_R (3 h): 1 g
KIDNEY_TOTAL (3 h): 2 g
LIVER (3 h): 9.5 g
A/G (3 h): 1.5
ALP (3 h): 832.8 IU/L
ALT (3 h): 35.8 IU/L
AST (3 h): 66.4 IU/L
BUN (3 h): 11.6 mg/dL
CRE (3 h): 0.4 mg/dL
Ca (3 h): 10.7 mg/dL
Cl (3 h): 102.6 meq/L
DBIL (3 h): 0.072 mg/dL
GLC (3 h): 181.2 mg/dL
IP (3 h): 8.6 mg/dL
K (3 h): 4.3 meq/L
LDH (3 h): 184 IU/L
Na (3 h): 139.6 meq/L
PL (3 h): 134.2 mg/dL
RALB (3 h): 3.2 g/dL
TBIL (3 h): 0.1 mg/dL
TC (3 h): 73.2 mg/dL
TG (3 h): 38.4 mg/dL
TP (3 h): 5.4 g/dL
gamma-GTP (3 h): 1.4 IU/L
TERMINAL_BW (6 h): 215.5 g
APTT (6 h): 18.9 s
Bas (6 h): 0%
Eos (6 h): 1%
Fbg (6 h): 220 mg/dL
Hb (6 h): 13.2 g/dL
Ht (6 h): 36.8%
Lym (6 h): 73.2%
MCH (6 h): 21.5 pg
MCHC (6 h): 35.8%
MCV (6 h): 60.2 fL
Mono (6 h): 3%
Neu (6 h): 19.6%
PT (6 h): 12.7 s
Plat (6 h): 114.8 x10_4/uL
RBC (6 h): 612.4 x10_4/ul
Ret (6 h): 7.5%
WBC (6 h): 106.7 x10_2/uL
KIDNEY_L (6 h): 1 g
KIDNEY_R (6 h): 1 g
KIDNEY_TOTAL (6 h): 2 g
LIVER (6 h): 8.8 g
A/G (6 h): 1.6
ALP (6 h): 1032.8 IU/L
ALT (6 h): 31.2 IU/L
AST (6 h): 60.8 IU/L
BUN (6 h): 13 mg/dL
CRE (6 h): 0.3 mg/dL
Ca (6 h): 10.4 mg/dL
Cl (6 h): 104.2 meq/L
DBIL (6 h): 0.06 mg/dL
GLC (6 h): 194.6 mg/dL
IP (6 h): 9.1 mg/dL
K (6 h): 4.1 meq/L
LDH (6 h): 175 IU/L
Na (6 h): 140.2 meq/L
PL (6 h): 133.4 mg/dL
RALB (6 h): 3.3 g/dL
TBIL (6 h): 0.1 mg/dL
TC (6 h): 75.4 mg/dL
TG (6 h): 39 mg/dL
TP (6 h): 5.4 g/dL
gamma-GTP (6 h): 1 IU/L
TERMINAL_BW (9 h): 211.4 g
APTT (9 h): 17.9 s
Bas (9 h): 0%
Eos (9 h): 1%
Fbg (9 h): 221 mg/dL
Hb (9 h): 13.1 g/dL
Ht (9 h): 36.7%
Lym (9 h): 70.4%
MCH (9 h): 21.7 pg
MCHC (9 h): 35.7%
MCV (9 h): 60.7 fL
Mono (9 h): 2.6%
Neu (9 h): 22.8%
PT (9 h): 13.1 s
Plat (9 h): 112.4 x10_4/uL
RBC (9 h): 604.8 x10_4/ul
Ret (9 h): 7.5%
WBC (9 h): 77.5 x10_2/uL
KIDNEY_L (9 h): 1 g
KIDNEY_R (9 h): 1 g
KIDNEY_TOTAL (9 h): 2 g
LIVER (9 h): 8.1 g
A/G (9 h): 1.6
ALP (9 h): 800.8 IU/L
ALT (9 h): 29.8 IU/L
AST (9 h): 58.8 IU/L
BUN (9 h): 14.2 mg/dL
CRE (9 h): 0.4 mg/dL
Ca (9 h): 10.5 mg/dL
Cl (9 h): 104.8 meq/L
DBIL (9 h): 0.068 mg/dL
GLC (9 h): 187.4 mg/dL
IP (9 h): 9.4 mg/dL
K (9 h): 4.2 meq/L
LDH (9 h): 173.6 IU/L
Na (9 h): 140.8 meq/L
PL (9 h): 119 mg/dL
RALB (9 h): 3.4 g/dL
TBIL (9 h): 0.1 mg/dL
TC (9 h): 65 mg/dL
TG (9 h): 35.6 mg/dL
TP (9 h): 5.5 g/dL
gamma-GTP (9 h): 1 IU/L
TERMINAL_BW (24 h): 225 g
APTT (24 h): 18.3 s
Bas (24 h): 0%
Eos (24 h): 0.8%
Fbg (24 h): 289.8 mg/dL
Hb (24 h): 12.9 g/dL
Ht (24 h): 36.8%
Lym (24 h): 60.4%
MCH (24 h): 22 pg
MCHC (24 h): 35.1%
MCV (24 h): 62.8 fL
Mono (24 h): 3%
Neu (24 h): 31.4%
PT (24 h): 11.8 s
Plat (24 h): 115.4 x10_4/uL
RBC (24 h): 585.4 x10_4/ul
Ret (24 h): 7%
WBC (24 h): 131.5 x10_2/uL
KIDNEY_L (24 h): 1 g
KIDNEY_R (24 h): 1 g
KIDNEY_TOTAL (24 h): 2.1 g
LIVER (24 h): 10.5 g
A/G (24 h): 1.5
ALP (24 h): 850.8 IU/L
ALT (24 h): 36 IU/L
AST (24 h): 61.4 IU/L
BUN (24 h): 14.2 mg/dL
CRE (24 h): 0.4 mg/dL
Ca (24 h): 10.4 mg/dL
Cl (24 h): 103.6 meq/L
DBIL (24 h): 0.08 mg/dL
GLC (24 h): 185.2 mg/dL
IP (24 h): 7.8 mg/dL
K (24 h): 3.8 meq/L
LDH (24 h): 187.2 IU/L
Na (24 h): 141.4 meq/L
PL (24 h): 133.4 mg/dL
RALB (24 h): 3 g/dL
TBIL (24 h): 0.1 mg/dL
TC (24 h): 67 mg/dL
TG (24 h): 100.2 mg/dL
TP (24 h): 5 g/dL
gamma-GTP (24 h): 2 IU/L
